Assay results as given in US10597388B2, “Pyridazinone herbicides” (FMC CORPORATION, priority 2014, dated 2020).

Legend:
Assay in all cases: Test D controlled growth environment herbicide test, pre- and postemergence
Type in all cases: in vivo
[1] = system: mustard, wild (wild mustard, Sinapis arvensis)
Text: (§1) Seeds of plant species selected from bluegrass (annual bluegrass, Poa annua), blackgrass (Alopecurus myosuroides), Canada thistle (Cirsium arvense), canarygrass (Phalaris minor), chickweed (common chickweed, Stellaria media), geranium, cutleaf (cutleaf geranium, Geranium dissectum), galium (catchweed bedstraw, Galium aparine), bromegrass, downy (downy bromegrass, Bromus tectorum), field poppy (Papaver rhoeas), field violet (Viola arvensis), foxtail, green (green foxtail, Setaria viridis), deadnettle (henbit deadnettle, Lamium amplexicaule), ryegrass, Italian (Italian ryegrass, Lolium multiflorum), kochia (Kochia scoparia), lambsquarters (Chenopodium album), oilseed rape (Brassica napus), pigweed (Amaranthus retroflexus), chamomile (scentless chamomile, Matricaria inodora), Russian thistle (Salsola kali), speedwell (bird's-eye speedwell, Veronica persica), barley, spring (spring barley, Hordeum vulgare), wheat, spring (spring wheat, Triticum aestivum), buckwheat, wild (wild buckwheat, Polygonum convolvulus), mustard, wild (wild mustard, Sinapis arvensis), oat, wild (wild oat, Avena fatua), radish, wild (wild radish, Raphanus raphanistrum), windgrass (Apera spica-venti), barley, winter (winter barley, Hordeum vulgare), and wheat, winter (winter wheat, Triticum aestivum) were planted into a silt loam soil and treated preemergence with test chemicals formulated in a non-phytotoxic solvent mixture which included a surfactant.
(§2) At the same time, these species were planted in pots containing Redi-Earth® planting medium (Scotts Company, 14111 Scottslawn Road, Marysville, Ohio 43041) comprising spaghnum peat moss, vermiculite, wetting agent and starter nutrients and treated with postemergence applications of the test chemicals formulated in the same manner. Plants ranged in height from 2 to 18 cm (1- to 4-leaf stage). Treated plants and controls were maintained in a controlled growth environment for 14 to 21 d after which time all species were compared to controls and visually evaluated. Plant response ratings, summarized in Table D, are based on a scale of 0 to 100 where 0 is no effect and 100 is complete control. A dash (-) response means no test result.

[2] = system: field violet (Viola arvensis)
Text: as §1, §2

[3] = system: deadnettle (henbit deadnettle, Lamium amplexicaule)
Text: as §1, §2

[4] = system: speedwell (bird's-eye speedwell, Veronica persica)
Text: as §1, §2

[5] = system: oat, wild (wild oat, Avena fatua)
Text: as §1, §2

[6] = system: radish, wild (wild radish, Raphanus raphanistrum)
Text: as §1, §2

[7] = system: oilseed rape (Brassica napus)
Text: as §1, §2

[8] = system: field poppy (Papaver rhoeas)
Text: as §1, §2

[9] = system: barley, spring (spring barley, Hordeum vulgare)
Text: as §1, §2

[10] = system: wheat, winter (winter wheat, Triticum aestivum)
Text: as §1, §2

[11] = system: kochia (Kochia scoparia)
Text: as §1, §2

[12] = system: chamomile (scentless chamomile, Matricaria inodora)
Text: as §1, §2

[13] = system: chickweed (common chickweed, Stellaria media)
Text: as §1, §2

[14] = system: Russian thistle (Salsola kali)
Text: as §1, §2

[15] = Postemergence, 31 g ai/ha, scale 0 to 100 (0 no effect, 100 complete control)
[16] = Postemergence, 125 g ai/ha, visual rating on scale 0 (no effect) to 100 (complete control), 14 to 21 d
[17] = Postemergence, 250 g ai/ha, scale 0 to 100 (0 no effect, 100 complete control)
[18] = Preemergence, 62 g ai/ha, scale 0 to 100 (0 no effect, 100 complete control)
[19] = Preemergence, 125 g ai/ha, scale 0 to 100 (0 no effect, 100 complete control)
[20] = Preemergence, 250 g ai/ha, scale 0 to 100, 0 no effect, 100 complete control
[21] = postemergence, 62 g ai/ha, scale 0 to 100, 0 no effect, 100 complete control

Cc1nn(C)c(=O)c(-c2c(C)sc3ccc(Br)cc23)c1O [Compound 22]
55: Plant response rating, Oat, Wild [5, 18]
98: Plant response rating, Chickweed [13, 16]
75: Plant response rating, Field Violet [2, 16] | Plant response rating, Radish, Wild [6, 21] | Plant response rating, Oilseed Rape [7, 20] | Field Poppy plant response rating [8, 15] | Plant response rating, Kochia [11, 20] | Plant response rating, Russian Thistle [14, 16]
15: Plant response rating, Deadnettle [3, 19] | Plant response rating, Barley, Spring [9, 16] | Plant response rating, Barley, Spring [9, 17] | Plant response rating, Wheat, Winter [10, 16] | Plant response rating, Wheat, Winter [10, 17]
5: Plant response rating (scale of 0 to 100), Mustard, Wild ([1]; Preemergence, 31 g ai/ha) | Wheat, Winter plant response rating [10, 15] | Plant response rating, Wheat, Winter [10, 20] | Plant response rating, Wheat, Winter [10, 21]
70: Field Violet plant response rating [2, 15] | Plant response rating, Field Violet [2, 21] | Plant response rating, Deadnettle [3, 17] | Plant response rating, Oat, Wild [5, 19] | Plant response rating, Radish, Wild [6, 19] | Plant response rating, Russian Thistle [14, 21]
10: Deadnettle plant response rating [3, 15] | Plant response rating, Deadnettle [3, 21]
95: Plant response rating, Mustard, Wild [1, 20] | Plant response rating, Mustard, Wild [1, 21] | Plant response rating, Field Violet [2, 17] | Plant response rating, Oat, Wild [5, 20] | Plant response rating, Oilseed Rape [7, 16] | Plant response rating, Kochia [11, 21] | Plant response rating (scale of 0 to 100), Chamomile ([12]; Preemergence, 31 g ai/ha) | Plant response rating (scale of 0 to 100), Chickweed ([13]; Preemergence, 31 g ai/ha) | Plant response rating, Chickweed [13, 21]
80: Plant response rating, Field Violet [2, 19] | Plant response rating, Radish, Wild [6, 20] | Kochia plant response rating [11, 15] | Chamomile plant response rating [12, 15] | Plant response rating, Chamomile [12, 21]
90: Mustard, Wild plant response rating [1, 15]
25: Plant response rating, Radish, Wild [6, 18]
60: Speedwell plant response rating [4, 15] | Plant response rating, Speedwell [4, 21]
100: Plant response rating, Mustard, Wild [1, 16] | Plant response rating, Mustard, Wild [1, 17] | Plant response rating, Field Violet [2, 20] | Plant response rating, Speedwell [4, 17] | Plant response rating, Speedwell [4, 20] | Plant response rating, Oat, Wild [5, 17] | Plant response rating, Radish, Wild [6, 16] | Plant response rating, Oilseed Rape [7, 17] | Plant response rating, Field Poppy [8, 16] | Plant response rating, Field Poppy [8, 17] | Plant response rating, Field Poppy [8, 19] | Plant response rating, Field Poppy [8, 20] | Plant response rating, Kochia [11, 16] | Plant response rating, Kochia [11, 17] | Plant response rating, Chamomile [12, 17] | Plant response rating, Chamomile [12, 18] | Plant response rating, Chamomile [12, 19] | Plant response rating, Chamomile [12, 20] | Plant response rating, Chickweed [13, 17] | Plant response rating, Chickweed [13, 18] | Plant response rating, Chickweed [13, 19] | Plant response rating, Chickweed [13, 20]
0: Plant response rating (scale of 0 to 100), Deadnettle ([3]; Preemergence, 31 g ai/ha) | Plant response rating, Deadnettle [3, 18] | Plant response rating (scale of 0 to 100), Speedwell ([4]; Preemergence, 31 g ai/ha) | Plant response rating, Speedwell [4, 18] | Plant response rating (scale of 0 to 100), Radish, Wild ([6]; Preemergence, 31 g ai/ha) | Plant response rating (scale of 0 to 100), Oilseed Rape ([7]; Preemergence, 31 g ai/ha) | Plant response rating, Oilseed Rape [7, 18] | Plant response rating, Oilseed Rape [7, 19] | Plant response rating (scale of 0 to 100), Field Poppy ([8]; Preemergence, 31 g ai/ha) | Plant response rating, Field Poppy [8, 18] | Plant response rating, Barley, Spring [9, 15] | Plant response rating (scale of 0 to 100), Barley, Spring ([9]; Preemergence, 31 g ai/ha) | Plant response rating, Barley, Spring [9, 18] | Plant response rating, Barley, Spring [9, 19] | Barley, Spring plant response rating [9, 20] | Plant response rating, Barley, Spring [9, 21] | Plant response rating (scale of 0 to 100), Wheat, Winter ([10]; Preemergence, 31 g ai/ha) | Plant response rating, Wheat, Winter [10, 18] | Plant response rating, Wheat, Winter [10, 19] | Plant response rating (scale of 0 to 100), Russian Thistle ([14]; Preemergence, 31 g ai/ha) | Plant response rating, Russian Thistle [14, 18] | Plant response rating, Russian Thistle [14, 19]
20: Plant response rating (scale of 0 to 100), Field Violet ([2]; Preemergence, 31 g ai/ha) | Plant response rating, Russian Thistle [14, 20]
85: Plant response rating, Mustard, Wild [1, 19] | Plant response rating, Oat, Wild [5, 16] | Plant response rating, Oat, Wild [5, 21] | Radish, Wild plant response rating [6, 15] | Plant response rating, Radish, Wild [6, 17] | Plant response rating, Field Poppy [8, 21] | Plant response rating, Chamomile [12, 16] | Chickweed plant response rating [13, 15] | Plant response rating, Russian Thistle [14, 17]
35: Plant response rating (scale of 0 to 100), Kochia ([11]; Preemergence, 31 g ai/ha) | Plant response rating, Kochia [11, 18]
45: Plant response rating, Deadnettle [3, 16]
65: Plant response rating, Mustard, Wild [1, 18] | Plant response rating, Field Violet [2, 18] | Plant response rating, Speedwell [4, 16] | Oat, Wild plant response rating [5, 15] | Russian Thistle plant response rating [14, 15]
30: Plant response rating (scale of 0 to 100), Oat, Wild ([5]; Preemergence, 31 g ai/ha) | Oilseed Rape plant response rating [7, 15] | Plant response rating, Oilseed Rape [7, 21]
50: Plant response rating, Speedwell [4, 19] | Plant response rating, Kochia [11, 19]

Cc1ccc2ccccc2c1-c1c(O)c(Br)nn(C)c1=O [Compound 23]
45: Plant response rating, Field Violet [2, 21]
60: Plant response rating, Oilseed Rape [7, 21]
30: Plant response rating, Barley, Spring [9, 17]
55: Plant response rating, Wheat, Winter [10, 16]
75: Plant response rating, Field Violet [2, 16] | Plant response rating, Field Violet [2, 17] | Plant response rating, Deadnettle [3, 16] | Plant response rating, Speedwell [4, 16] | Plant response rating, Oat, Wild [5, 21] | Plant response rating, Radish, Wild [6, 21] | Plant response rating, Kochia [11, 16] | Plant response rating, Kochia [11, 21] | Plant response rating, Russian Thistle [14, 16] | Plant response rating, Russian Thistle [14, 21]
70: Plant response rating, Wheat, Winter [10, 17]
25: Plant response rating, Barley, Spring [9, 16]
15: Plant response rating, Barley, Spring [9, 21]
65: Plant response rating, Deadnettle [3, 21] | Plant response rating, Oilseed Rape [7, 16]
80: Plant response rating, Kochia [11, 17] | Plant response rating, Russian Thistle [14, 17]
40: Plant response rating, Wheat, Winter [10, 21]
95: Plant response rating, Mustard, Wild [1, 21] | Plant response rating, Speedwell [4, 17] | Plant response rating, Oat, Wild [5, 16] | Plant response rating, Oat, Wild [5, 17]
100: Plant response rating, Mustard, Wild [1, 16] | Plant response rating, Mustard, Wild [1, 17] | Plant response rating, Speedwell [4, 21] | Plant response rating, Radish, Wild [6, 16] | Plant response rating, Radish, Wild [6, 17] | Plant response rating, Field Poppy [8, 16] | Plant response rating, Field Poppy [8, 17] | Plant response rating, Field Poppy [8, 21] | Plant response rating, Chamomile [12, 17] | Plant response rating, Chickweed [13, 16] | Plant response rating, Chickweed [13, 17] | Plant response rating, Chickweed [13, 21]
85: Plant response rating, Deadnettle [3, 17] | Plant response rating, Oilseed Rape [7, 17] | Plant response rating, Chamomile [12, 16] | Plant response rating, Chamomile [12, 21]
